Assay results: patent publication US8436023B2, “Cyclohexyl-azetidinyl antagonists of CCR2” (Janssen Pharmaceutica N.V., priority 2010, dated 2013)

Biological target: T1, CCR2 (Homo sapiens, UniProt P41597)
T1 construct: host or cells: THP-1 human monocytic cells
T1 sequence (P41597 1-360 isoform P41597-2): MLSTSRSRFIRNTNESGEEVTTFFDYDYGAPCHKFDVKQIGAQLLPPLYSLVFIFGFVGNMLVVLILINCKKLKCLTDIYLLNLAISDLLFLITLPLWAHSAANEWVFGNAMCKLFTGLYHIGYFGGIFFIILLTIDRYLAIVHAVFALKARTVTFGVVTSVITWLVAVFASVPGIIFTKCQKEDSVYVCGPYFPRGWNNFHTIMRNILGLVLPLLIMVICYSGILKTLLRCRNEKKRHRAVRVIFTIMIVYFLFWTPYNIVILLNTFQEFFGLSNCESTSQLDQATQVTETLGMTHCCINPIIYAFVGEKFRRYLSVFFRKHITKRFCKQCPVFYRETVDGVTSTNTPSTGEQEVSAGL
Experiment: MCP-1 Receptor Binding Assay in THP-1 Cells
Details: 0.5 nM 125I labeled MCP-1, 2 hours at 30° C., less polar isomer tested where stated, read-out: Inhibition of MCP-1 Binding IC50, CCR2 Binding
Method: MCP-1 Receptor Binding Assay in THP-1 Cells
Human monocytic cell line THP-1 cells were obtained from American Type Culture Collection (Manassas, Va., USA). The THP-1 cells were grown in RPMI-1640 (RPMI: Roswell Park Memorial Institute Medium-cell culture growth media) supplemented with 10% fetal bovine serum in a humidified 5% CO2 atmosphere at 37° C. The cell density was maintained […].
THP-1 (cells were incubated with 0.5 nM ^125I labeled MCP-1 (Perkin-Elmer Life Sciences, Inc. Boston, Mass.) in the presence of varying concentrations of either unlabeled MCP-1 (R & D Systems, Minneapolis, Minn.) or test compound for 2 hours at 30° C. in a 96 well plate. Cells were then harvested onto a filter plate, dried, and 20 μL of Microscint 20 was added to each well. Plates were counted in a TopCount NXT, Microplate Scintillation & Luminescence Counter (Perkin-Elmer Life Sciences, Inc. Boston, Mass.). Blank values (buffer only) were subtracted from all values and drug treated values were compared to vehicle treated values. 1 μM cold MCP-1 was used for nonspecific binding.
Where an IC50 value was not obtained for a particular compound, the percent inhibition is provided at a test concentration of 25 μM.

SMILES | IC50
Cn1nc(NCC(=O)NC2CN(C3CCC(O)(c4cncs4)CC3)C2)c2cc(OC(F)(F)F)ccc21 (stereo not drawn) [Example 55, N-[1-(4-Hydroxy-4-thiazol-5-yl-cyclohexyl)-azetidin-3-yl]-2-(1-methyl-5-trifluoromethoxy-1H-indazol-3-ylamino)-acetamide] | 0.042 µM
CC(C)c1ncc(C2(O)CCC(N3CC(NC(=O)CNc4nn(C)c5ccc(C(F)(F)F)cc45)C3)CC2)s1 (stereo not drawn) [Example 24, N-{1-[4-Hydroxy-4-(2-isopropyl-thiazol-5-yl)-cyclohexyl]-azetidin-3-yl}-2-(1-methyl-5-trifluoromethyl-1H-indazol-3-ylamino)-acetamide] | 0.0053 µM
O=C(CNc1nn(CCO)c2ccc(C(F)(F)F)cc12)NC1CN(C2CCC(O)(c3cncs3)CC2)C1 (stereo not drawn) [Example 76] | 0.029 µM
CC(C)(C)NC(=O)n1nc(NCC(=O)NC2CN(C3CCC(O)(c4nccs4)CC3)C2)c2cc(C(F)(F)F)ccc21 (stereo not drawn) [Example 80, 3-({[1-(4-Hydroxy-4-thiazol-2-yl-cyclohexyl)-azetidin-3-ylcarbamoyl]-methyl}-amino)-5-trifluoromethyl-indazole-1-carboxylic acid tert-butylamide] | 0.075 µM
CCc1ncc(C2(O)CCC(N3CC(NC(=O)CNc4nn(CC(F)(F)F)c5ccc(C(F)(F)F)cc45)C3)CC2)s1 (stereo not drawn) [Example 73, N-{1-[4-(2-Ethyl-thiazol-5-yl)-4-hydroxy-cyclohexyl]-azetidin-3-yl}-2-[1-(2,2,2-trifluoro-ethyl)-5-trifluoromethyl-1H-indazol-3-ylamino]-acetamide] | 0.16 µM
CCn1nc(NCC(=O)NC2CN(C3CCC(O)(c4nccs4)CC3)C2)c2cc(C(F)(F)F)ccc21 (stereo not drawn) [Example 68, 2-(1-Ethyl-5-trifluoromethyl-1H-indazol-3-ylamino)-N-[1-(4-hydroxy-4-thiazol-2-yl-cyclohexyl)-azetidin-3-yl]-acetamide] | 0.051 µM
COC(F)(c1ccc2c(c1)c(NCC(=O)NC1CN(C3CCC(O)(c4ccc(C)nc4)CC3)C1)nn2C)C(F)(F)F (stereo not drawn) [Example 103, N-{1-[4-Hydroxy-4-(6-methyl-pyridin-3-yl)-cyclohexyl]-azetidin-3-yl}-2-[1-methyl-5-(1,2,2,2-tetrafluoro-1-methoxy-ethyl)-1H-indazol-3-ylamino]-acetamide] | 0.022 µM
COc1ccc(C2(O)CCC(N3CC(NC(=O)CNc4nn(C)c5ccc(OC(F)(F)F)cc45)C3)CC2)cn1 (stereo not drawn) [Example 57] | 0.06 µM
CC(C)C1CCC(N2CC(NC(=O)CNc3nn(Cc4ccccc4)c4ccc(C(F)(F)F)cc34)C2)CC1 (stereo not drawn) [Example 98, 2-(1-Benzyl-5-trifluoromethyl-1H-indazol-3-ylamino)-N-[1-(4-isopropyl-cyclohexyl)-azetidin-3-yl]-acetamide] | 5.9 µM
Cc1ccc(C2(O)CCC(N3CC(NC(=O)CNc4n[nH]c5ccc(C(F)(F)F)cc45)C3)CC2)cn1 (stereo not drawn) [Example 43, N-{1-[4-Hydroxy-4-(6-methyl-pyridin-3-yl)-cyclohexyl]-azetidin-3-yl}-2-(5-trifluoromethyl-1H-indazol-3-ylamino)-acetamide] | 0.0058 µM
Cn1nc(NCC(=O)NC2CN(C3CCC(O)(c4nccs4)CC3)C2)c2cc(C(F)C(F)(F)F)ccc21 (stereo not drawn) [Example 66, N-[1-(4-Hydroxy-4-thiazol-2-yl-cyclohexyl)-azetidin-3-yl]-2-[1-methyl-5-(1,2,2,2-tetrafluoro-ethyl)-1H-indazol-3-ylamino]-acetamide] | 0.037 µM
CCc1ncc(C2(O)CCC(N3CC(NC(=O)CNc4nn(C)c5ccc(C(O)C(F)(F)F)cc45)C3)CC2)s1 (stereo not drawn) [Example 62, N-{1-[4-(2-Ethyl-thiazol-5-yl)-4-hydroxy-cyclohexyl]-azetidin-3-yl}-2-[1-methyl-5-(2,2,2-trifluoro-1-hydroxy-ethyl)-1H-indazol-3-ylamino]-acetamide] | 1.5 µM
Cn1nc(NCC(=O)NC2CN(C3CCC(O)(c4ccccc4)CC3)C2)c2cc(C(F)(F)F)ccc21 (stereo not drawn) [Example 29, N-[1-(4-Hydroxy-4-phenyl-cyclohexyl)-azetidin-3-yl]-2-(1-methyl-5-trifluoromethyl-1H-indazol-3-ylamino)-acetamide] | 0.019 µM
Cc1ncc(C2(O)CCC(N3CC(NC(=O)CNc4nn(C)c5ccc(C(F)(F)F)cc45)C3)CC2)s1 (stereo not drawn) [Example 28, N-{-[4-Hydroxy-4-(2-methyl-thiazol-5-yl)-cyclohexyl]-azetidin-3-yl}-2-(1-methyl-5-trifluoromethyl-1H-indazol-3-ylamino)-acetamide] | 0.019 µM
COc1ccc(C2(O)CCC(N3CC(NC(=O)CNc4nn(CCO)c5ccc(C(F)(F)F)cc45)C3)CC2)cn1 (stereo not drawn) [Example 75, 2-[1-(2-Hydroxy-ethyl)-5-trifluoromethyl-1H-indazol-3-ylamino]-N-{1-[4-hydroxy-4-(6-methoxy-pyridin-3-yl)-cyclohexyl]-azetidin-3-yl}-acetamide] | 0.032 µM
COc1ccc(C2(O)CCC(N3CC(NC(=O)CNc4nn(C)c5ccc(C(F)(F)F)cc45)C3)CC2)cn1 (stereo not drawn) [Example 18, N-{1-[4-Hydroxy-4-(6-methoxy-pyridin-3-yl)-cyclohexyl]-azetidin-3-yl}-2-(1-methyl-5-trifluoromethyl-1H-indazol-3-ylamino)-acetamide] | 0.0094 µM

The remaining lines, values ahead:

IC50 | SMILES
0.027 µM | CCOC(=O)C1CCC(N2CC(NC(=O)CNc3n[nH]c4ccc(C(F)(F)F)cc34)C2)CC1 (stereo not drawn) [Example 50, 4-{3-[2-(5-Trifluoromethyl-1H-indazol-3-ylamino)-acetylamino]-azetidin-1-yl}-cyclohexane carboxylic acid ethyl ester]
0.23 µM | CCOC(=O)C1CCC(N2CC(NC(=O)CNc3nn(S(C)(=O)=O)c4ccc(C(F)(F)F)cc34)C2)CC1 (stereo not drawn) [Example 99, 4-{3-[2-(1-Methanesulfonyl-5-trifluoromethyl-1H-indazol-3-ylamino)-acetylamino]-azetidin-1-yl}-cyclohexane carboxylic acid ethyl ester]
0.73 µM | CCn1nc(NCC(=O)NC2CN(C3CCC(C(C)C)CC3)C2)c2cc(C(F)(F)F)ccc21 (stereo not drawn) [Example 71, 2-(1-Ethyl-5-trifluoromethyl-1H-indazol-3-ylamino)-N-[1-(4-isopropyl-cyclohexyl)-azetidin-3-yl]-acetamide]
0.75 µM | CC(C)(C)NC(=O)n1nc(NCC(=O)NC2CN(C3CCC(C#N)CC3)C2)c2cc(C(F)(F)F)ccc21 (stereo not drawn) [Example 86, 3-({[1-(4-Cyano-cyclohexyl)-azetidin-3-ylcarbamoyl]-methyl}-amino)-5-trifluoromethyl-indazole-1-carboxylic acid tert-butylamide]
0.23 µM | CCOC(=O)C1CCC(N2CC(NC(=O)CNc3nn(CC(F)(F)F)c4ccc(C(F)(F)F)cc34)C2)CC1 (stereo not drawn) [Example 72, 4-(3-{2-[1-(2,2,2-Trifluoro-ethyl)-5-trifluoromethyl-1H-indazol-3-ylamino]-acetylamino}-azetidin-1-yl)-cyclohexane carboxylic acid ethyl ester]
0.33 µM | O=C(CNc1noc2ccc(C(F)(F)F)cc12)NC1CN(C2CCC(C3CCCCC3)CC2)C1 (stereo not drawn) [Example 5, N-(1-Bicyclohexyl-4-yl-azetidin-3-yl)-2-(5-trifluoromethyl-benzo[d]isoxazol-3-ylamino)-acetamide]
3.1 µM | CC(C)NC(=O)n1nc(NCC(=O)NC2CN(C3CCC(C4CCCCC4)CC3)C2)c2cc(C(F)(F)F)ccc21 (stereo not drawn) [Example 93, 3-{[(1-Bicyclohexyl-4-yl-azetidin-3-ylcarbamoyl)-methyl]-amino}-5-trifluoromethyl-indazole-1-carboxylic acid isopropylamide]
0.013 µM | CCOC(=O)C1CCC(N2CC(NC(=O)CNc3nn(C)c4ccc(C(F)(F)F)cc34)C2)CC1 (stereo not drawn) [Example 32, 4-{3-[2-(1-Methyl-5-trifluoromethyl-1H-indazol-3-ylamino)-acetylamino]-azetidin-1-yl}-cyclohexane carboxylic acid ethyl ester]
0.75 µM | CC(C)(C)OC(=O)NC1CCC(N2CC(NC(=O)CNc3noc4ccc(C(F)(F)F)cc34)C2)CC1 (stereo not drawn) [Example 10, (4-{3-[2-(5-Trifluoromethyl-benzo[d]isoxazol-3-ylamino)-acetylamino]-azetidin-1-yl}-cyclohexyl)-carbamic acid tert-butyl ester]
0.087 µM | CC(C)(C)OC(=O)NC1CCC(N2CC(NC(=O)CNc3n[nH]c4ccc(C(F)(F)F)cc34)C2)CC1 (stereo not drawn) [Example 51, (4-{3-[2-(5-Trifluoromethyl-1H-indazol-3-ylamino)-acetylamino]-azetidin-1-yl}-cyclohexyl)-carbamic acid tert-butyl ester]
0.53 µM | NC(=O)n1nc(NCC(=O)NC2CN(C3CCC(O)CC3)C2)c2cc(C(F)(F)F)ccc21 (stereo not drawn) [Example 85, 3-({[1-(4-Hydroxy-cyclohexyl)-azetidin-3-ylcarbamoyl]-methyl}-amino)-5-trifluoromethyl-indazole-1-carboxylic acid amide]
